The values below come from ChEMBL document CHEMBL5131421, “Cadinane Sesquiterpenoids and Their Glycosides from Alangium chinense That Inhibit Spontaneous Calcium Oscillations” (J Nat Prod, 2022).

The nature of assay [1]: Neuroprotective activity in primary neocortical neuron (unknown origin) assessed as inhibition of 4-AP-induced spontaneous calcium channel oscillation frequency measured after 15 min by Fluo-4AM dye based fluorescence assay. The assay is classed as functional, cell-based.
The nature of assay [2]: Neuroprotective activity in primary neocortical neuron (unknown origin) assessed as inhibition of 4-AP-induced spontaneous calcium channel oscillation amplitude measured after 15 min by Fluo-4AM dye based fluorescence assay. The assay is classed as functional, cell-based.
The mark [3] stands for this setting: Primary neocortical neuron, 0.25 h.

Take `Cc1cc2c(cc1O)C(C)(c1ccc(O)c(O)c1)C(=O)C=C2C(C)C` (racemic): the 50% inhibitory concentration (IC50) was found to be 3.45 µM in assay [1] (setting [3]) and 5.56 µM in assay [2] (setting [3]).

`NC1=N[C@H](O)[C@H]2[C@H]3O[C@]4(O)O[C@@H]([C@@H](O)[C@@]2(N1)[C@@H]4O)[C@]3(O)CO` [TETRODOTOXIN]: the values for the IC50 in assay [1] (primary neocortical neuron) and in assay [2] (primary neocortical neuron) were 0.00493 µM and 0.00169 µM, respectively.

On to `Cc1cc2c(cc1O)C(=O)[C@@](C)(c1ccc(O)c(O)c1)C=C2C(C)C`, for which the half-inhibitory concentration (IC50) in assay [1] (setting [3]) was 2.58 µM; in assay [2] (setting [3]), 5.77 µM.

For `Cc1cc2c(cc1O)C(=O)[C@](C)(c1ccc(O)c(O)c1)C=C2C(C)C`, the IC50 in assay [1] (setting [3]) worked out at 1.91 µM; in assay [2] (setting [3]) it was 8.03 µM.

For `Cc1cc2c(cc1O)[C@](C)(c1ccc(O)c(O)c1)C(=O)C=C2C(C)C`, the 50% inhibitory concentration (IC50) in assay [1] (setting [3]) was found to be 2.05 µM; in assay [2] (setting [3]), 5.36 µM.

For `Cc1cc2c(cc1O)[C@@](C)(c1ccc(O)c(O)c1)C(=O)C=C2C(C)C`, the 50% inhibitory concentration (IC50) in assay [1] (setting [3]) amounted to 3.09 µM; in assay [2] (setting [3]), 7.38 µM.

As for `Cc1cc2c(cc1O)C(=O)C(C)(c1ccc(O)c(O)c1)C=C2C(C)C` (racemic), the values for the 50% inhibitory concentration (IC50) in assay [1] (setting [3]) and in assay [2] (setting [3]) were 0.97 µM and 6.1 µM, respectively.
